In patent US20250327133A1, “USE OF SRE-PTPRZ1 INHIBITOR IN PREPARATION OF DRUG FOR TREATING SQUAMOUS CELL CARCINOMA” (WEST CHINA HOSPITAL, SICHUAN UNIVERSITY, priority 2022, published 2025):
pIC50: −log10 of the molar value.

What was measured:
glioma cell line U251 = experiment: CCK8 cell growth inhibition by NAZ2329, U251; type: cell-based; settings: 5-70 μM, 72 hours
Procedure: (§1) The CCK8 method was used to detect the inhibition rate of PTPRZ1 inhibitor NAZ2329 on cell growth. 5 strains of human Lung-LUSC cells, one strain of human normal lung epithelial cell BEAS-2B, and one strain of highly expressed PTPRZ1 cell line U251 (High expression of PTPRZ1 gene in glioma cells) were used in this experiment for detection. Each cell line was inoculated into a 96-well plate at a density of 8000 cells/well, and cultured for 18 h. Then, 100 μL of NAZ2329 solution was added to the test wells at final concentrations of 5 μM, 10 μM, 20 μM, 30 μM, 40 μM, 50 μM, 60 μM, and 70 μM, while 100 μL of medium was added to the blank control well. After 72 hours of drug treatment, 20 μL of CCK8 was added in proportion and incubated for 2 h. The absorbance value was measured at 450 nm and the inhibition rate curve was plotted.

human Lung-LUSC cells = experiment: CCK8 cell growth inhibition by NAZ2329, Lung-LUSC cells; type: cell-based; settings: 5-70 μM, 72 hours
Procedure: as §1

[1] = tested on: human normal lung epithelial cell BEAS-2B; experiment: CCK8 cell growth inhibition by NAZ2329, BEAS-2B; type: cell-based; settings: 5-70 μM, 72 hours
Procedure: as §1

[2] = tested on: human Lung-LUSC (H520) cells; experiment: Subcutaneous tumor formation in nude mice (H520); type: in vivo, BALB/c-nu mice; settings: for tumor size compared with the model group / tumor volume compared with the model group: after 21 days of administration
Procedure: At the animal level, the method of subcutaneous tumor formation in nude mice was used to verify the therapeutic effect of the inhibitor MY33-3 on the tumor formation of human Lung-LUSC (H520) cells. Firstly, 30 of 4W BALB/c-nu mice were purchased from GemPharmatech and acclimated for 3 days. Then, 150 μL of pre-prepared H520 cells was injected subcutaneously into the right forelimb of nude mice at 8×10^6 cells/mouse. After 7 days, the tumor growth of each nude mouse was observed, and the mice were grouped and received drugs when the tumor grew to 100 mm^3. Mice were divided into the blank group, the model group, the low-dose group, and the high-dose group, with 7 mice in each group. Meanwhile, the inhibitor MY33-3 was administered at doses of 20 mg/kg (low-dose group) and 100 mg/kg (high-dose group) once every 2 days, and the changes in tumor growth were recorded using a vernier caliper. Then, after 21 days of administration, samples were collected, and the therapeutic effect of the inhibitor MY33-3 on human Lung-LUSC cells was evaluated using indicators such as tumor volume, tumor weight, and nude mouse weight.

[3] = tested on: human normal lung epithelial cell line BEAS-2B; experiment: CCK8 cell proliferation, MY33-3, BEAS-2B; type: cell-based; settings: 72 hours
Procedure: (§2) The CCK8 method was used to detect the effect of PTPRZ1 inhibitor MY33-3 on cell proliferation. 7 strains of human Lung-LUSC cells, one strain of human lung adenocarcinoma cell, one strain of human normal lung epithelial cell BEAS-2B, and one strain of PTPRZ1 high expressing cell line U251 (high expression of PTPRZ1 gene in glioma cells) were used in this experiment for detection. Each cell line was inoculated into a 96-well plate at a density of 6000 cells/well, cultured for 24 hours, and then 100 μL of MY33-3 working solution was added to the test wells at final concentrations of 0 μM, 1 μM, 2 μM, 4 μM, 8 μM, 16 μM, 32 μM, and 64 μM, while 100 μL of medium was added to the blank control well. After 72 hours of drug treatment, 20 μL of CCK8 was added in proportion and incubated for 1 hour. The absorbance value was measured at 450 nm, and the IC50 values of MY33-3 against different cells were plotted.

[4] = tested on: PTPRZ1 glioma cell line U251; experiment: CCK8 cell proliferation, MY33-3, U251; type: cell-based; settings: Homo sapiens, U-251, 72 hours
Procedure: as §2

[5] = tested on: human Lung-LUSC cell lines; experiment: CCK8 cell proliferation, MY33-3, Lung-LUSC cell lines; type: cell-based; settings: 7 human Lung LUSC cell lines; 72 hours
Procedure: as §2

[6] = tested on: human Lung LUAD cell line; experiment: CCK8 cell proliferation, MY33-3, lung adenocarcinoma cell line; type: cell-based; settings: one human Lung LUAD cell line; 72 hours
Procedure: as §2

H520 cells = experiment: CCK8 cell survival, MY-10, H520; type: cell-based, human; settings: 72 hours
Procedure: (§3) The CCK8 method was used to detect the effect of the PTPRZ1 inhibitor MY-10 on cell proliferation. 3 human Lung-LUSC cells and one PTPRZ1 high expression cell line U251 (high expression of PTPRZ1 gene in glioma cells) were used in this experiment for detection. Each cell line was inoculated into a 96-well plate at a density of 5000 cells/well, cultured for 24 hours, and then 100 μL of MY-10 working solution was added at final concentrations of 0 μM, 1 μM, 2 μM, […], 6 μM, and […] to the test wells, while 100 μL of medium was added to the blank control well. After 72 hours of drug treatment, 20 μL of CCK8 was added in proportion, followed by incubating for 1 h. The absorbance value was measured at 450 nm, and the survival rates of MY-10 against different Lung-LUSC cells were plotted.

H1703 = experiment: CCK8 cell survival, MY-10, H1703; type: cell-based, human; settings: 0-8 μM, 72 hours
Procedure: as §3

[7] = tested on: PTPRZ1 glioma cell line (U251); experiment: CCK8 cell survival, MY-10, U251; type: cell-based; settings: 0-8 μM, 72 hours
Procedure: as §3

LK-2 = experiment: CCK8 cell survival, MY-10, LK-2; type: cell-based, human; settings: 0-8 μM, 72 hours
Procedure: as §3

Compound: CCOc1ccc(C(F)(F)F)cc1CSc1ccsc1C(=O)NS(=O)(=O)c1ccccc1 [NAZ2329]
- cell growth with increasing treatment concentration (glioma cell line U251): inhibited
- growth inhibition rate on cell growth (human Lung-LUSC cells; 4 strains of Lung-LUSC cells, compared with BEAS-2B and U251): significantly higher than that of human normal lung epithelial cells BEAS-2B and glioma cell line U251
- cell growth with increasing treatment concentration (human Lung-LUSC cells; Lung-LUSC cells): inhibited
- cell growth with increasing treatment concentration [1]: inhibited

Compound: FC(F)(F)Sc1ccc(CNCc2ccc(SC(F)(F)F)cc2)cc1 [MY33-3]
- inhibitory effect on tumorigenicity of H520 cells ([2]; dose of 20 mg/kg): good inhibitory effect
- weight of nude mice versus model group ([2]; high-dose group 100 mg/kg): no significant difference
- tumor size compared with the model group ([2]; high-dose group 100 mg/kg once every 2 days): significantly decreased
- tumor volume compared with the model group ([2]; high-dose group 100 mg/kg): more significantly decreased
- weight of nude mice versus model group ([2]; low-dose group 20 mg/kg): no significant difference
- tumor size compared with the model group ([2]; low-dose group 20 mg/kg once every 2 days): significantly decreased
- tumor volume compared with the model group ([2]; low-dose group 20 mg/kg): more significantly decreased
- pIC50 [3]: 4.55
- pIC50 [4]: 4.48
- pIC50 [5]: > 4.80
- pIC50 [6]: 4.60

Compound: FC(F)(F)Sc1ccc(CCCOc2ccc(SC(F)(F)F)cc2)cc1 [MY-10]
- inhibitory effect with increasing concentrations (H520 cells; H520, 0-8 μM): significant inhibitory effects
- pIC50 (H520 cells; Homo sapiens, NCI-H520, H520 cells, read-out: IC50 (survival rate)): ~5.40
- inhibitory effect with increasing concentrations (H1703): significant inhibitory effects
- inhibitory effect with increasing concentrations [7]: significant inhibitory effects
- inhibitory effect with increasing concentrations (LK-2): significant inhibitory effects
